This assay deals with Ubiquitin carboxyl-terminal hydrolase 30 (Homo sapiens) (UniProt Q70CQ3). In words: ubiquitin-specific protease 30 DUB inhibitors, concentration-effect, biochemical, validation of primary actives (AID 1645865). To be noted: purified USP30, Ub-rhodamine cleavage, fluorescence, 2 h.

Consider 87 molecules from PubChem BioAssay AID1645865 (Buhrlage Lab, Dana-Farber Cancer Institute and Novartis …, 2021).

SMILES strings stand for the structures. Active and inactive are the calls of the source.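 Rule for the calls: active = maximal inhibition of the USP30 enzyme reaching 30% or more across the dose series; inactive = the rest.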

Ubiquitin carboxyl-terminal hydrolase 30 (Homo sapiens), sequence (Q70CQ3 whole entry, looked up): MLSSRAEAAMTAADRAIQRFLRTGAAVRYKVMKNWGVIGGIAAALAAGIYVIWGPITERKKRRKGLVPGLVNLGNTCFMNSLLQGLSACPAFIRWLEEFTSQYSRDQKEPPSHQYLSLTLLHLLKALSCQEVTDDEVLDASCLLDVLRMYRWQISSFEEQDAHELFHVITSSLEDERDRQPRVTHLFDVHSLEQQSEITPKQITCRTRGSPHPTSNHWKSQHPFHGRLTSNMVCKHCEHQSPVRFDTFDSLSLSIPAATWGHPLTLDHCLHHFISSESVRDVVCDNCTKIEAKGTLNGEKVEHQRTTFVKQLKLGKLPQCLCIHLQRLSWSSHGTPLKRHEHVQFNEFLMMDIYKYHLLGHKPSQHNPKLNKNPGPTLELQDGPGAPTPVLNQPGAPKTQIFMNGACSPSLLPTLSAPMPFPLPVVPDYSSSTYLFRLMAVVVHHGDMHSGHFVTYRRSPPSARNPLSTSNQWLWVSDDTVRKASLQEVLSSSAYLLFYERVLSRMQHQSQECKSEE

A word on the IC50: it is the concentration at which inhibition is half-maximal. Turning to `Cc1ccccc1Cn1ccc2ccn(Cc3cccnc3)c2c1=O`, the IC50 is > 50 µM (inactive).

With `CC(C)(C)N=C1Nc2ncccc2NC12CCCN(C(=O)c1ccccc1)C2` (configuration not stated), the IC50 is > 50 µM (inactive).

In the case of `O=C(Nc1ccc(Br)cn1)c1nc2ccccc2nc1N1CCCCC1`, the IC50 was > 50 µM (inactive).

For `Cc1ccc(Nc2nc(O)c(CC(=O)Nc3ccccc3C)s2)cc1C`, the 50% inhibitory concentration (IC50) is 17.3 µM.

For `COc1cc2cc3c(c(O)c2c(O)c1-c1c(OC)cc2cc4c(c(O)c2c1O)C(=O)OC1CC(C)OC41)C(=O)OC1CC(C)OC31` (configuration not stated), the IC50 is > 50 µM (inactive).

As to `O=C(C1CCCN(S(=O)(=O)N2CCCCCC2)C1)N1CCN(c2ccccc2)CC1` (configuration not stated), the IC50 is > 50 µM (inactive).

For the molecule `COc1ccc(-c2nc3n(n2)C(CC(=O)Nc2cccc4ccccc24)C(=O)N3)cc1` (configuration not stated), the IC50 is 2.87 µM.

Consider `Cc1nn(-c2ccc([N+](=O)[O-])cc2)c(C)c1-c1nc2ccccc2[nH]1`, for which the IC50 was 23.6 µM.

Consider `Cc1ccc(C(=O)N2CCCC3(C2)Nc2cccnc2NC3=NC2CCCC2)s1` (configuration not stated), for which the IC50 is > 50 µM (inactive).

As to `COc1ccc(NC(=O)c2nnn(-c3ccccc3)c2C)cc1OC`, the IC50 is > 50 µM (inactive).

With `Cn1c2ccccc2c2ncn(Cc3ccc(F)cc3)c(=O)c21`, the IC50 was 27.3 µM.

In the case of `Cc1ccccc1C(=O)OCCN1C(=O)c2cccc3c(N4CCCCC4)ccc(c23)C1=O`, the IC50 was > 50 µM (inactive).

Turning to `CCOC(=O)c1cc2c(ccn2C)n1CC(=O)N1CCC(C)CC1`, the IC50 is > 50 µM (inactive).

As for `CCn1c(=O)c2ccccc2n(Cc2nc(-c3ccccc3OC)no2)c1=O`, the IC50 is > 50 µM (inactive).

As for `COc1ccc(C2CC(=O)Nc3ccc4ccccc4c32)c(OC)c1OC` (configuration not stated), the half-inhibitory concentration (IC50) is 22.3 µM.

In the case of `O=C(/C=C/c1ccc2c(c1)OCO2)Nc1nc2c(s1)COCC2`, the IC50 is 25.8 µM.

Turning to `Cc1nnc(Sc2cc(C(=O)NCCN3CCCC3)c3ccccc3n2)s1`, the IC50 was > 50 µM (inactive).

Turning to `CCS(=O)(=O)N1CCc2cc(C(=O)Nc3ccc4c(c3)OCCO4)ccc21`, the IC50 is > 50 µM (inactive).

For the molecule `COCCn1c(=O)[nH]c2cc(C(=O)NCCNc3ccc([N+](=O)[O-])cc3C#N)ccc2c1=O`, the IC50 is 2.35 µM.

On to `CN1CCN(C(=O)c2cc(-c3ccn(CC4CC4)n3)n3ccccc23)CC1`, for which the IC50 was > 50 µM (inactive).

With `COc1ccc(C(=O)Nc2nc3n(n2)C(c2ccccc2)CC(=O)N3)cc1` (configuration not stated), the half-inhibitory concentration (IC50) is 10.7 µM.

As to `CC1=C(c2ccc(Cl)cc2)S(=O)(=O)NC1=NCC(=O)Nc1ccc(F)cc1`, the half-inhibitory concentration (IC50) is 17 µM.

On to `Cc1nn(Cc2ccccc2)c2sc(C(=O)Nc3nc4ccccc4[nH]3)cc12`, for which the IC50 is 19.4 µM.

In the case of `CSc1ccccc1NC(=O)c1ccc(-n2cccn2)nn1`, the IC50 was 2.32 µM.

Regarding `NC(=O)CCC(=O)N[C@H]1C[C@H]2CN(Cc3ccccc3)c3ccccc3CN2C1`, the IC50 is > 50 µM (inactive).

As for `O=C1CC(c2ccco2)Cc2[nH]c(=O)c(-c3nc(-c4ccc(Cl)cc4)cs3)cc21` (configuration not stated), the IC50 was > 50 µM (inactive).

Turning to `Cc1cc(N2CCOCC2)nc2ccc(NC(=O)CCC(=O)Nc3ccc(F)cc3)cc12`, the half-maximal inhibitory concentration (IC50) is 10.3 µM.

In the case of `COc1cccc2c1NC(=O)C21CCN(C(=O)Nc2cccc(C)c2)CC1`, the concentration for half-maximal inhibition (IC50) was 16.3 µM.

Turning to `COc1ccc(NC(=O)c2[nH]nc3c2COc2ccccc2-3)c(OC)c1`, the 50% inhibitory concentration (IC50) was 3.47 µM.

On to `Cc1ccc(-c2nnc(-n3ncc(C#N)c3N)c3ccccc23)cc1C`, for which the IC50 was > 50 µM (inactive).

Take `CCn1c(CN2CCCC(c3nc(-c4cccnc4)n[nH]3)C2)nc2ccccc21` (configuration not stated): the IC50 was > 50 µM (inactive).

In the case of `COc1ccc(S(=O)(=O)N(C)Cc2cccs2)cc1OC`, the IC50 was > 50 µM (inactive).

As for `Cc1cc(-n2c(C)cc(-c3csc(N)n3)c2C)no1`, the IC50 is > 50 µM (inactive).

Take `CCOC(=O)c1nc(Nc2ccc(OC)c(Cl)c2)c2ccccc2n1`: the IC50 is 26.6 µM.

As to `CCc1nc2c(NC(=O)Nc3cccc(C(=O)OC)c3)cccn2n1`, the IC50 was > 50 µM (inactive).

In the case of `NS(=O)(=O)c1cc(C(=O)OCC(=O)c2ccc3c(c2)OCCO3)ccc1Cl`, the IC50 is > 50 µM (inactive).

On to `COc1ccc(CNC(=O)CCc2nc3sc4c(c3c(=O)[nH]2)CCCCC4)cc1`, for which the IC50 is > 50 µM (inactive).

As for `O=c1sc2ccccc2c(=O)n1Cc1cccc(C(F)(F)F)c1`, the IC50 was > 50 µM (inactive).

With `Cc1nn(-c2cc(N3CCOCC3)ncn2)c(C)c1CCC(=O)Nc1ccc(C(C)C)cc1`, the half-maximal inhibitory concentration (IC50) is 34.9 µM.

In the case of `O=C(CCn1c(=O)c2ccccc2n(Cc2cc(=O)n3ccccc3n2)c1=O)NCCc1ccc(Cl)cc1`, the 50% inhibitory concentration (IC50) was 28.5 µM.

As to `CC(C)N1CC2CN(C(=O)c3ccccc3)CCN2Cc2ccccc21` (configuration not stated), the IC50 was > 50 µM (inactive).

As for `Cn1c(=O)sc2cc(NC(=O)c3ccc(Br)cc3)ccc21`, the half-maximal inhibitory concentration (IC50) was 2.21 µM.

As to `O=C1CC(C(=O)Nc2ccccc2Cl)n2nc(-c3ccccc3)cc2N1` (configuration not stated), the IC50 was 20.1 µM.

Consider `CCOC(=O)c1cc2c(ccn2C)n1Cc1cccc2ccccc12`, for which the IC50 was > 50 µM (inactive).

For `O=C(COc1ccc2ccccc2c1)Nc1cccc2ccccc12`, the IC50 is 21 µM.

Turning to `CC(C)c1cc(Nc2cccc(F)c2)n2nc(-c3cccnc3)nc2n1`, the 50% inhibitory concentration (IC50) is 6.35 µM.

Take `CCc1ccc(NC(=O)COC(=O)c2n[nH]c3ccccc23)cc1`: the IC50 is 4.4 µM.

As for `CS(=O)(=O)n1nc(NCc2ccc(F)cc2)nc1NCc1ccc(F)cc1`, the IC50 is > 50 µM (inactive).

As for `Cc1sc(NC(=O)CN2CCc3ccccc3C2)nc1-c1ccc2c(c1)CCN2C(=O)C1CCCCC1`, the IC50 was > 50 µM (inactive).

`Cc1cccc(S(=O)(=O)N2CCc3nc4ccccc4n3CC2)c1`: the IC50 is 23.4 µM.

Consider `CCOC(=O)c1ccc(NC(=O)Cn2c(=O)n(CC(=O)NCc3ccco3)c(=O)c3ccccc32)cc1`, for which the IC50 was 1.01 µM.

For `O=C(CCC1CCCCC1)Nc1ccccc1C(=O)N1CCOCC1`, the IC50 is > 50 µM (inactive).

As to `CC(C)(C)n1nc(C2CC2)c(Br)c1NC(=O)c1ccccc1F`, the half-maximal inhibitory concentration (IC50) was 34.1 µM.

For `O=C(O)C1CCN(Cc2c(-c3ccco3)nc3ccc(Cl)cn23)CC1`, the IC50 is > 50 µM (inactive).

`Cc1oc(-c2ccc(C(=O)NCC3COCCO3)cc2)nc1CN1CCc2ccccc21` (configuration not stated): the IC50 is > 50 µM (inactive).

As to `CCOc1ccc(C(=O)Cn2c(=O)n(CC3CCCO3)c(=O)c3cc(OC)c(OC)cc32)cc1Cl` (configuration not stated), the IC50 was 25.8 µM.

Turning to `COc1ccccc1NC(=O)Cn1cc(C(=O)c2ccc(C)cc2)c(=O)c2cc(Cl)ccc21`, the 50% inhibitory concentration (IC50) was 3.86 µM.

With `CCc1ccc(-n2nc(C)c3c2NC(=O)CC3C(=O)c2ccc3c(c2)OCCO3)cc1` (configuration not stated), the half-maximal inhibitory concentration (IC50) was 21 µM.

Take `Cc1ccc(NC(=O)Cn2c(-n3nc(C)cc3C)nc3c(c2=O)CCCC3)c(C)c1`: the IC50 was 25.6 µM.

For `Cc1ccccc1C(=O)Nc1ccc(Cc2ccc(NC(=O)c3ccccc3C)c(O)c2)cc1O`, the IC50 is > 50 µM (inactive).

For the molecule `O=C1c2c(O)c(Cl)cc3c2[C@@]2(Oc4cc(Cl)c(O)c5c4[C@]3(O2)[C@@H]2O[C@@H]2C5=O)[C@@H]2O[C@H]12`, the concentration for half-maximal inhibition (IC50) was 1.1 µM.

For `CC(C)c1ccc(C(C(=O)NC2CCCCC2)N(C(=O)c2cnccn2)c2cccc(F)c2)cc1` (configuration not stated), the half-inhibitory concentration (IC50) was 22.9 µM.

On to `CCc1cc(C(=O)c2ccc(OC)cc2)c(NC(=O)CN2CCCCC2)s1`, for which the IC50 was 33.5 µM.

As to `CC(C)N1CC2CN(Cc3ccc(Cl)cc3)CCN2Cc2ccccc21` (configuration not stated), the IC50 is > 50 µM (inactive).

`Cc1ccccc1OCCC(=O)Nc1cccc(S(=O)(=O)Nc2ccccc2Cl)c1`: the IC50 was > 50 µM (inactive).

`CCCCCC(O)c1c(O)cc2c(c1O)C(=O)c1c(O)cc(O)cc1C2=O` (configuration not stated): the IC50 is > 50 µM (inactive).

For the molecule `CC(C)CCn1c(=O)c2ccccc2n2c(CCC(=O)NC3CCCCCC3)nnc12`, the IC50 was > 50 µM (inactive).

Consider `COc1ccc(NC(=O)C2CC(=O)Nc3cc(-c4ccccc4)nn32)cc1` (configuration not stated), for which the IC50 was 22.5 µM.

Take `N[C@@H](Cc1ccccc1)C(=O)N1CCC2(CC1)CN(C(=O)c1ccc(Cl)cc1)CCO2`: the IC50 is > 50 µM (inactive).

As for `COc1ccc(CCNC(=O)c2cc3ccccc3s2)cc1OC`, the IC50 was > 50 µM (inactive).

`Cc1cccc(C)c1NC(=O)Cn1c(=O)n(CCCCC(=O)NCc2ccc3c(c2)OCO3)c(=O)c2ccccc21`: the half-inhibitory concentration (IC50) was 1.5 µM.

As for `COc1ccc(-c2cc(-c3ccc(O)cc3)nc(N)c2C#N)cc1OC`, the IC50 was > 50 µM (inactive).

Take `COc1cccc(Cn2nc3n(CC(C)C)c(=O)c4ccc(C(=O)NCC(C)C)cc4n3c2=O)c1`: the IC50 was 2.37 µM.

Regarding `NC(=O)c1ccc(NC(=O)Cc2cc(-c3ccc(Cl)cc3)on2)cc1`, the IC50 is > 50 µM (inactive).

Consider `Cc1cc(C(=O)CN2CCN(Cc3ccc4c(c3)OCO4)CC2)c(C)n1-c1ccc2c(c1)OCO2`, for which the IC50 was > 50 µM (inactive).

In the case of `CC1(C(=O)NC2CCCC2)Cn2c(cc3ccccc32)C(=O)N1c1ccc(F)cc1` (configuration not stated), the IC50 was > 50 µM (inactive).

For the molecule `CCCc1nc2sc3c(NCCN4CCOCC4)ncnc3c2c2c1CCC2`, the IC50 was > 50 µM (inactive).

Consider `O=C(NCc1ccccc1)c1ccc(-c2ccc(N3CCCC3)nn2)cc1`, for which the IC50 is > 50 µM (inactive).

As to `O=C(NCC(c1cccnc1)N1CCc2ccccc2C1)C(=O)Nc1ccc2c(c1)OCO2` (configuration not stated), the concentration for half-maximal inhibition (IC50) was 33.3 µM.

`O=C(Nc1nnc2n1CCCS2)c1cc2ccccc2o1`: the IC50 was > 50 µM (inactive).

For `O=C(Nc1cccc(OC(=O)c2ccc(Cl)cc2)c1)c1ccc(Cl)cc1`, the IC50 is 16 µM.

As for `CN(C)c1ccc(/C=N/NC(=O)c2ccc(Cl)cc2)cc1`, the 50% inhibitory concentration (IC50) was 10.7 µM.

`CSc1nc(SCC(N)=O)c2c3c(sc2n1)COC(C)(C)C3`: the IC50 is 30.6 µM.

Regarding `COc1ccc(C2C(C(=O)C(C)(C)C)N3c4ccccc4C=CC3C23C(=O)c2ccccc2C3=O)c(OC)c1` (configuration not stated), the IC50 is > 50 µM (inactive).

In the case of `CCn1cc2c(n1)c(=O)n(Cc1ccc(C)cc1)c(=O)n2CC(=O)Nc1ccc(F)cc1`, the IC50 was 3.47 µM.

Turning to `O=c1ccc(-c2noc(Cc3cccc(Cl)c3)n2)c[nH]1`, the IC50 is > 50 µM (inactive).

As for `Cc1cc(C)cc(-n2ccnc(SCC(=O)Nc3cccc(Cl)c3)c2=O)c1`, the IC50 was 7.47 µM.
